Consider one compound from US20230106719A1, “DISSOLVING AGENT” (NATIONAL UNIVERSITY CORPORATION HOKKAIDO UNIVERSITY, priority 2020, published 2023).

The structures appear in SMILES notation. Converted amounts (≈) assume the structure as drawn.

A short description of the data set: Drug solubility in coconut oil, CAOM and related dissolving agents. It counts as physicochemical.

Consider `COc1cc(/C=C/C(=O)CC(=O)/C=C/c2ccc(O)c(OC)c2)ccc1O` [curcumin], for which the “solubility of curcumin in CAOM relative to coconut oil” value (in CAOM versus coconut oil) turned out to be 6 times. Also, for the setting “oil or lipid, thermodynamic from solid, in coconut oil, room temperature, mean±SD n=3, read-out: solubility of curcumin in coconut oil”, the solubility at 2 days is 2440 ± 240 µg/mL (≈ 6.62 mM).

By solubility is commonly meant how much of the substance goes into solution per volume.
